ED50 and Ratio data for three molecules are collected here from ChEMBL document CHEMBL1127429, “4-Deacetyltaxol and 10-acetyl-4-deacetyltaxotere: synthesis and biological evaluation” (J Med Chem, 1994).

Assay [1] in a line: In vitro binding affinity to reduce the supernatant protein concentration of the microtubule.
The nature of assay [2]: Ratio of ED50 to that of taxol.

Molecules are shown by their SMILES.

Take `CC(=O)O[C@H]1C(=O)[C@@]2(C)[C@H]([C@H](OC(=O)c3ccccc3)[C@]3(O)C[C@H](OC(=O)[C@H](O)[C@@H](NC(=O)c4ccccc4)c4ccccc4)C(C)=C1C3(C)C)[C@]1(OC(C)=O)CO[C@@H]1C[C@@H]2O`: the ED50 in assay [1] was determined as 0.93 µM. The Ratio in assay [2] came out at 1.
On the same counts, the results for `CC(=O)O[C@H]1C(=O)[C@@]2(C)[C@H]([C@H](OC(=O)c3ccccc3)[C@]3(O)C[C@H](OC(=O)[C@H](O)[C@@H](NC(=O)c4ccccc4)c4ccccc4)C(C)=C1C3(C)C)[C@]1(O)CO[C@@H]1C[C@@H]2O` are over 30 µM and over 32.
On the same counts, the results for `CC(=O)O[C@H]1C(=O)[C@@]2(C)[C@H]([C@H](OC(=O)c3ccccc3)[C@]3(O)C[C@H](OC(=O)[C@H](O)[C@@H](NC(=O)OC(C)(C)C)c4ccccc4)C(C)=C1C3(C)C)[C@]1(O)CO[C@@H]1C[C@@H]2O` are over 30 µM and over 32.
